The experiment concerns the target T1, cIAP2-BIR3 (Homo sapiens, UniProt Q13489).
T1 construct: gene BIRC3; BIR3 domain, residues 245-357 as printed (jointly with cIAP1), C-terminal 6xHis-tag, pET21(b), E. coli BL21(DE3)
The experiment in a line: fluorescence polarization displacement of fluorescent probe FITC-SMAC. As to conditions: read-out: Fluorescence Binding Assays IC50 [nM] / cIAP2-BIR3. The text has this:
fluorescence polarization displacement of fluorescent probe FITC-SMAC on cIAP2-BIR3
For orientation: In fluorescence polarisation assays a small probe gives low polarisation when free and higher when bound to something large.

Structures are written as SMILES.

T1 sequence (Q13489 245-357): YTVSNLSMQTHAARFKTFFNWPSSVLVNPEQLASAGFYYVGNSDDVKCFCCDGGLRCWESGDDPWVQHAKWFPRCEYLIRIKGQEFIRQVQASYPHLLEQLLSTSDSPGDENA

With `CC[C@H](NC)C(=O)N[C@@H]1C(=O)N2[C@@H](CC[C@@H]1CO)CC[C@H]2C(=O)N[C@@H](c1ccccc1)c1cn(CCCCc2ccc(CCCCn3cc([C@@H](NC(=O)[C@@H]4CC[C@@H]5CC[C@H](CO)[C@H](NC(=O)[C@H](CC)NC)C(=O)N54)c4ccccc4)nn3)cc2)nn1` [9a], the IC50 was 1.9 ± 0.9 nM.

(Values after paper PMC3499469, “Structural Insight into Inhibitor of Apoptosis Proteins Recognition by a Potent Divalent Smac-Mimetic” (PLoS ONE, 2012).)
